# Measured values reported in ChEMBL document CHEMBL1681710, “Pyridyl amides as potent inhibitors of T-type calcium channels” (Bioorg Med Chem Lett, 2011).
# Active and inactive are the calls of the source. The rule behind the calls is not given here.
# Key:
# [1] = molecular target: T1, Voltage-dependent T-type calcium channel subunit alpha-1I (Homo sapiens, UniProt Q9P0X4); assay: Antagonist activity at Cav3.3 alpha1i expressed in HEK293 cells by depolarized FLIPR assay; type: functional, cell-based
# Rattus norvegicus [2] = assay: Antiepileptic activity in WAG/Rij rat seizure model assessed as reduction in total seizure time measured for 4 hrs at 10 mg/kg, po by radiotelemetric physiologic monitor; type: functional
# [3] = Binding affinity to L-type Ca2+ channel
# [4] = molecular target: Voltage-gated inwardly rectifying potassium channel KCNH2 (Homo sapiens, UniProt Q12809); assay: Inhibition of human ERG
# [5] = molecular target: T1, Voltage-dependent T-type calcium channel subunit alpha-1I; assay: Binding affinity to Cav3.3 alpha1i
# [6] = Volume of distribution at steady state in dog at 0.5 mg/kg, iv; type: ADME, organism-based, Canis lupus familiaris; set-up: dose 0.5 mg/kg, route intravenous; details: in vivo
# [7] = molecular target: Voltage-dependent N-type calcium channel subunit alpha-1B (Homo sapiens, UniProt Q00975); assay: Inhibition of N-type Cav2.2 at -80 mV holding potential by tandard voltage-clamp electrophysiology assay
# Rattus norvegicus [8] = assay: Effect on sleep architecture in rat assessed as increase in delta sleep at 3 mg/kg, po up to 4 hrs; type: functional, organism-based; set-up: dose 3 mg/kg
# [9] = Bioavailability in dog at 0.5 mg/kg, iv; type: ADME, organism-based, Canis lupus familiaris; details: in vivo
# [10] = Volume of distribution at steady state in rhesus monkey at 0.5 mg/kg, iv; type: ADME, organism-based, Macaca mulatta; set-up: dose 0.5 mg/kg, route intravenous; details: in vivo
# [11] = Bioavailability in rat at 2 mg/kg, iv and 10 mg/kg, po; details: in vivo
# [12] = Half life in rat at 2 mg/kg, iv; details: in vivo
# [13] = molecular target: Voltage-dependent T-type calcium channel subunit alpha-1G (Homo sapiens, UniProt O43497); assay: Inhibition of Cav3.1 alpha1G at -80 mV holding potential by tandard voltage-clamp electrophysiology assay
# [14] = Half life in dog at 0.5 mg/kg, iv; type: ADME, organism-based, Canis lupus familiaris; set-up: dose 0.5 mg/kg, route intravenous; details: in vivo
# [15] = molecular target: Voltage-dependent P/Q-type calcium channel subunit alpha-1A (Homo sapiens, UniProt O00555); assay: Inhibition of P/Q-type Cav2.1 at -80 mV holding potential by tandard voltage-clamp electrophysiology assay
# Rattus norvegicus [16] = assay: Effect on sleep architecture in rat assessed as reduction in REM sleep at 3 mg/kg, po up to 4 hrs; type: functional, organism-based; set-up: dose 3 mg/kg
# [17] = Bioavailability in rhesus monkey at 0.5 mg/kg, iv; type: ADME, organism-based, Macaca mulatta; details: in vivo
# [18] = Plasma clearance in rhesus monkey at 0.5 mg/kg, iv; type: ADME, organism-based, Macaca mulatta; set-up: dose 0.5 mg/kg, route intravenous
# [19] = molecular target: T1, Voltage-dependent T-type calcium channel subunit alpha-1I; assay: Antagonist activity at Cav3.3 alpha1i expressed in HEK293 cells at -100 mV by standard voltage-clamp electrophysiology assay; type: functional, cell-based
# [20] = molecular target: Voltage-dependent T-type calcium channel subunit alpha-1H (Homo sapiens, UniProt O95180); assay: Inhibition of Cav3.2 alpha1H at -80 mV holding potential by tandard voltage-clamp electrophysiology assay
# [21] = Plasma clearance in dog at 0.5 mg/kg, iv; type: ADME, organism-based, Canis lupus familiaris; set-up: dose 0.5 mg/kg, route intravenous
# [22] = Plasma clearance in rat at 2 mg/kg, iv
# Rattus norvegicus [23] = assay: Effect on sleep architecture in po dosed rat assessed as reduction in active awake up to 4 hrs; type: functional, organism-based
# [24] = Half life in rhesus monkey at 0.5 mg/kg, iv; type: ADME, organism-based, Macaca mulatta; set-up: dose 0.5 mg/kg, route intravenous; details: in vivo
# Rattus norvegicus [25] = assay: Effect on sleep architecture in rat assessed as reduction in active awake at 3 mg/kg, po up to 4 hrs; type: functional, organism-based; set-up: dose 3 mg/kg
# [26] = Volume of distribution at steady state in rat at 2 mg/kg, iv; details: in vivo
# [27] = molecular target: Voltage-dependent R-type calcium channel subunit alpha-1E (Homo sapiens, UniProt Q15878); assay: Inhibition of R-type Cav2.3 at -80 mV holding potential by tandard voltage-clamp electrophysiology assay
# [28] = molecular target: Voltage-dependent L-type calcium channel subunit alpha-1C (Homo sapiens, UniProt Q13936); assay: Inhibition of L-type Cav1.2 at -80 mV holding potential by tandard voltage-clamp electrophysiology assay
# [29] = Cmax in non-implanted rat plasma after 1.2 hrs; type: ADME, organism-based
# Mus musculus = organism: Mus musculus; assay: Inhibition of high-fat diet-induced weight gain in mouse; type: functional, organism-based
# T1 sequence (Q9P0X4 whole entry): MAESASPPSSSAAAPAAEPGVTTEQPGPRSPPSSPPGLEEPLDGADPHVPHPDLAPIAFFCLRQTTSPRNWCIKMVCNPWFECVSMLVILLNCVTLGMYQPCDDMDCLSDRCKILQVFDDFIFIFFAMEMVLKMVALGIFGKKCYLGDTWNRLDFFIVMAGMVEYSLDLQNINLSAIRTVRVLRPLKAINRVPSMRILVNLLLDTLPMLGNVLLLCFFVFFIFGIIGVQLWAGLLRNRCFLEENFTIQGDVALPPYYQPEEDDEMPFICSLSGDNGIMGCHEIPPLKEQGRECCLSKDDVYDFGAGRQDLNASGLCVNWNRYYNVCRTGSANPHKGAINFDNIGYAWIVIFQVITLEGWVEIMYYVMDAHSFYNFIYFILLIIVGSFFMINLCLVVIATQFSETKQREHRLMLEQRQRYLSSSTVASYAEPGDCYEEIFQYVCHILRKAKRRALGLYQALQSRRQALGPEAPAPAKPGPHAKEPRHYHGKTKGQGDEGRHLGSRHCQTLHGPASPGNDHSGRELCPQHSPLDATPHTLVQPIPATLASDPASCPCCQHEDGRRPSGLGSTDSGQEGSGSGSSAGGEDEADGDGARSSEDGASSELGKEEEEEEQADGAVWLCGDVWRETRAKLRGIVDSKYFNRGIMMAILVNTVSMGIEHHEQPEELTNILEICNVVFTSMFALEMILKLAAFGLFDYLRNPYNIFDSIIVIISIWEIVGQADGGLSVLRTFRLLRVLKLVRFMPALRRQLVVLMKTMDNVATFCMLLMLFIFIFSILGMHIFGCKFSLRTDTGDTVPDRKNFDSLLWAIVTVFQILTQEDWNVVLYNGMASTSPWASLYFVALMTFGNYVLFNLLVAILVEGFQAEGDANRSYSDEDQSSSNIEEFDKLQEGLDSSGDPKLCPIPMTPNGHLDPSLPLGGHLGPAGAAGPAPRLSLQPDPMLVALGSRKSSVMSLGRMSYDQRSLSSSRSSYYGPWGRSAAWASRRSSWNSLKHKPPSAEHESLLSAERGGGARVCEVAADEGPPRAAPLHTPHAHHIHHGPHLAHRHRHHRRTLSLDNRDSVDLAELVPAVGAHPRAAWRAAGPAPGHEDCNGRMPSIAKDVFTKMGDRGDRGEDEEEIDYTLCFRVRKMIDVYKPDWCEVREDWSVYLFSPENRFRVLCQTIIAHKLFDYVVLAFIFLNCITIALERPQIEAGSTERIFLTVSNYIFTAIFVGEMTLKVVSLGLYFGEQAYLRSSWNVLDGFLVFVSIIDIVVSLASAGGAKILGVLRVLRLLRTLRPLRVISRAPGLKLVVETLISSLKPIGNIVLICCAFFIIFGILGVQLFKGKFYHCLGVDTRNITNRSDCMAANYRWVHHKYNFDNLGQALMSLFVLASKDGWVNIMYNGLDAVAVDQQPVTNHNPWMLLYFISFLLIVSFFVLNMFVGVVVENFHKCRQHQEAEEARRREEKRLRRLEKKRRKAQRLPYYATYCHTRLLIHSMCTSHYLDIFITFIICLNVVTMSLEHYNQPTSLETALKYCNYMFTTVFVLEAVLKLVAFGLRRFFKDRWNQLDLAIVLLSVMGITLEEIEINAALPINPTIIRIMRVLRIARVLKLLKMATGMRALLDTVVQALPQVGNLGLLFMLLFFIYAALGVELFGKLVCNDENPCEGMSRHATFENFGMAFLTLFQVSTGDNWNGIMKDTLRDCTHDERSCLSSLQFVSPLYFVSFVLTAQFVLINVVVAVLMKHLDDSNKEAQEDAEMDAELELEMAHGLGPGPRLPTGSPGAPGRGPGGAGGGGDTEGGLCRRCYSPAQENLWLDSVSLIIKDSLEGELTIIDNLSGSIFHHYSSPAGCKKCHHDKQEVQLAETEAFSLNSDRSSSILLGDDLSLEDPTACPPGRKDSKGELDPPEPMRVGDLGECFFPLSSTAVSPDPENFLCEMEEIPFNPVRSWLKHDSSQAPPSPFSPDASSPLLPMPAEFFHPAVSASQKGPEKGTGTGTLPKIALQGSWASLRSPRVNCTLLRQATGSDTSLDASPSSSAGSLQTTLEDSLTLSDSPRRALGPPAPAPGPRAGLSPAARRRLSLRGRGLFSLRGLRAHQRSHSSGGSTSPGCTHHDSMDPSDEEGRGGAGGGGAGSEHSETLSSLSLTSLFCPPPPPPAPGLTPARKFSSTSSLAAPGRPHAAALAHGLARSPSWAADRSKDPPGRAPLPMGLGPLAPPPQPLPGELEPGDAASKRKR
# Sequence of Voltage-gated inwardly rectifying potassium channel KCNH2 (Q12809 whole entry): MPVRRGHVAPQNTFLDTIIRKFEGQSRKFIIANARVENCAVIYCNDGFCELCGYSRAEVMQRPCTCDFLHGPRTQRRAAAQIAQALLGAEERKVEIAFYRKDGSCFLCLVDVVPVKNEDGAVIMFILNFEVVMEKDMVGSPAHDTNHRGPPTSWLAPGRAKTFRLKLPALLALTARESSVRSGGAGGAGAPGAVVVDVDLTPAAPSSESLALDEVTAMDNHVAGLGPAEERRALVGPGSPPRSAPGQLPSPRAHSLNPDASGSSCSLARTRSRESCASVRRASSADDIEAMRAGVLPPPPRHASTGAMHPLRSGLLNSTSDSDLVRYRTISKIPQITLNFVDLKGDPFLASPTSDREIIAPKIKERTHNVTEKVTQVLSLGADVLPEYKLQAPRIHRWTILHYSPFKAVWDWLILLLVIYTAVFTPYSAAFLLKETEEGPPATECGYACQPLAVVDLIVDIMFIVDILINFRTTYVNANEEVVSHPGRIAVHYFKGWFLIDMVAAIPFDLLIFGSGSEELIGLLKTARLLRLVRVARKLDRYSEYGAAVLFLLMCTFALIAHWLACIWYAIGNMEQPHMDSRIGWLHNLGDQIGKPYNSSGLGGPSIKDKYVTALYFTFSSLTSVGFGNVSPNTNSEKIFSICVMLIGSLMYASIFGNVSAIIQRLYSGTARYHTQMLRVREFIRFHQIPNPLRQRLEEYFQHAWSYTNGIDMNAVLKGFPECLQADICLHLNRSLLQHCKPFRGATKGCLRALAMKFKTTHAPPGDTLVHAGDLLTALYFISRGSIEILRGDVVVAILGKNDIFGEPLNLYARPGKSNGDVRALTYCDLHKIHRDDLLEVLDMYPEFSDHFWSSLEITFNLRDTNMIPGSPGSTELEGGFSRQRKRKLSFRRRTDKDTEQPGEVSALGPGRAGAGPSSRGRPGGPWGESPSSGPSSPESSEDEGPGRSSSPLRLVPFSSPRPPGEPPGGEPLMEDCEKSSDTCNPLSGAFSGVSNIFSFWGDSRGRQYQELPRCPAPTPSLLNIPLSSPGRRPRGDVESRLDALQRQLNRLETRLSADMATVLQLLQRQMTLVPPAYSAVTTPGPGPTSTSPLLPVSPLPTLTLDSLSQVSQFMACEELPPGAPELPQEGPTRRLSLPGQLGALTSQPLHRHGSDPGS
smiles,measurement,setting,value
COc1ccc([C@@H](C)NC(=O)Cc2ccc(C(C)(C)C)cc2)nc1,IP,[1],22 nM
same,inhibition in vivo at 10 mg/kg,Rattus norvegicus [2],49%
same,IC50,[3],> 10 µM
same,IC50,[4],> 10 µM
same,Ki,[5],5 nM
C[C@H](NC(=O)Cc1ccc(C(C)(C)C)cc1)c1ccccc1,IP,[1],4680 nM
COc1ccc(CC(=O)N[C@H](C)c2ccc(OC)cn2)cc1,IP,[1],1740 nM
COc1ccc([C@@H](C)NC(=O)Cc2ccccc2Cl)nc1,IP,[1],> 5000 nM
COc1cccc([C@@H](C)NC(=O)Cc2ccc(C(C)(C)C)cc2)c1,IP,[1],146 nM
COc1ccc([C@@H](C)NC(=O)Cc2ccc(C(C)C)cc2)nc1,IP,[1],45 nM
COc1ccc([C@@H](C)NC(=O)Cc2ccc(Cl)cc2)nc1,IP,[1],1330 nM
C[C@@H](NC(=O)Cc1ccc(C(C)(C)C)cc1)c1ccc(Cl)cn1,IP,[1],30 nM
CC(C)c1ccc(CC(=O)N[C@H](C)c2ccc(O)cn2)cc1,IP,[1],920 nM
CC(NC(=O)Cc1ccc(C(C)(C)C)cc1)c1ccccc1Cl (racemic),IP,[1],332 nM
COc1ccc([C@@H](C)NC(=O)Cc2ccc(C(C)(C)C)cc2)cc1,IP,[1],146 nM
COc1ccc([C@@H](C)NC(=O)Cc2ccc(C#N)cc2)nc1,IP,[1],> 5000 nM
CCCOc1ccc([C@@H](C)NC(=O)Cc2ccc(C(C)C)cc2)nc1,IP,[1],10 nM
CC(NC(=O)Cc1ccc(C(C)(C)C)cc1)c1ccncc1 (racemic),IP,[1],> 10000 nM
CC(NC(=O)Cc1ccc(C(C)(C)C)cc1)c1ccccn1 (racemic),IP,[1],427 nM
COc1ccc([C@@H](C)NC(=O)Cc2ccc(Oc3ccccc3)cc2)nc1,IP,[1],439 nM
CC(C)c1ccc(CC(=O)N[C@H](C)c2ccc(OCC(F)(F)F)cn2)cc1,IP,[1],5 nM
COc1ccc([C@@H](C)NC(=O)Cc2ccc(F)cc2)nc1,IP,[1],> 10000 nM
COc1ccc([C@@H](C)NC(=O)Cc2ccccc2)nc1,IP,[1],> 10000 nM
C[C@H](c1ccccc1)N(C)C(=O)Cc1ccc(C(C)(C)C)cc1,IP,[1],> 10000 nM
C[C@@H](NC(=O)Cc1ccc(C2CC2)cc1)c1ccc(OCc2ccccc2)cn1,IP,[1],21 nM
C[C@@H](NC(=O)Cc1ccc(C(C)(C)C)cc1)c1ccc(Cl)cc1,IP,[1],123 nM
CCCOc1ccc([C@@H](C)NC(=O)Cc2ccc(C3CC3)cc2)nc1,IP,[1],11 nM
C[C@@H](NC(=O)Cc1ccc(C2CC2)cc1)c1ccc(OCC(F)(F)F)cn1,Vd,[6],0.7 L/kg
same,IC50,[7],> 30 µM
same,Activity,Rattus norvegicus [8],Active
same,bioavailability,[9],43%
same,IP,[1],6 nM
same,inhibition in vivo at 10 mg/kg,Rattus norvegicus [2],87%
same,Vd,[10],0.9 L/kg
same,bioavailability,[11],68%
same,half-life,[12],90 min
same,IC50,[3],> 10 µM
same,IC50,[13],89 nM
same,half-life,[14],660 min
same,IC50,[15],> 30 µM
same,Activity,Rattus norvegicus [16],Active
same,bioavailability,[17],7%
same,clearance,[18],17 mL/min/kg
same,IC50,[19],3.7 µM
same,IC50,[20],92 nM
same,clearance,[21],0.9 mL/min/kg
same,clearance,[22],6 mL/min/kg
same,Activity,Rattus norvegicus [23],Dose-dependent effect
same,IC50,[4],> 10 µM
same,half-life,[24],54 min
same,Activity,Rattus norvegicus [25],Active
same,Vd,[26],0.8 L/kg
same,Ki,[5],1.2 nM
same,IC50,[27],> 30 µM
same,IC50,[28],> 30 µM
same,Cmax,[29],4 µM
same,inhibition,Mus musculus,Active
COc1ccc([C@@H](C)NC(=O)Cc2ccc(S(C)(=O)=O)cc2)nc1,IP,[1],> 10000 nM
C[C@@H](NC(=O)Cc1ccc(C(C)(C)C)cc1)c1ccccc1,IP,[1],235 nM
COc1ccc([C@@H](C)NC(=O)Cc2ccc(Cl)c(Cl)c2)nc1,IP,[1],252 nM
CC(NC(=O)Cc1ccc(C(C)(C)C)cc1)c1cccnc1 (racemic),IP,[1],5380 nM
C[C@@H](NC(=O)Cc1ccc(C2CC2)cc1)c1ccc(O)cn1,IP,[1],1720 nM
COc1ccc([C@@H](C)NC(=O)Cc2ccc(C(C)(C)O)cc2)nc1,IP,[1],1130 nM
CC(C)(C)c1ccc(CC(=O)NC(C)(C)c2ccccc2)cc1,IP,[1],5480 nM
COc1ccc([C@@H](C)NC(=O)Cc2ccc(C3CC3)cc2)nc1,IP,[1],70 nM
COC(=O)c1ccc(CC(=O)N[C@H](C)c2ccc(OC)cn2)cc1,IP,[1],1450 nM
COc1ccc([C@@H](C)NC(=O)Cc2cccc(Cl)c2)nc1,IP,[1],2780 nM
CC(C)c1ccc(CC(=O)N[C@H](C)c2ccc(OCc3ccccc3)cn2)cc1,IP,[1],16 nM
